For series [1] the following is noted: rat, in vivo, 300 mg/kg/day.
The nature of series [2]: Exploratory embryofetal development study in rats.
Series [3] is described as follows: 7-day dose-range-finding toxicology in female rats.
The next series in a line: in vivo. To be noted: female, rat, po.
[4] abbreviates: Sprague-Dawley rat, oral gavage GD 6 through GD 20.

A value given as a limit tells only on which side of the number the result lay.

For `CC(C)c1ccc(CC(=O)N[C@H](C)c2ccc(OCC(F)(F)F)cn2)cc1` [CX-8998], the “Decrease in food consumption” value in series [1] is listed as “up to 19%”. Besides, in series [2] (setting [4]), the “dose at which developmental toxicity was observed” value is given as “observed at ≥100 mg/kg/day”, the “dose at which maternal toxicity was excessive” value is given as 1000 mg/kg/day and the “dose at which maternal toxicity was observed” value is reported as no less than 30 mg/kg/day. In addition, in series [2] (rat, in vivo), the “Doses with developmental toxicity (decreased live fetal body weight)” value is on record as no less than 100 mg/kg/day and the “Doses with maternal toxicity” value is no less than 30 mg/kg/day. This molecule yielded an NOEL in series [3] (Sprague-Dawley rat, 7-day exploratory toxicity, oral gavage) of 500 mg/kg/day. For the same molecule, the “findings indicative of dose-limiting toxicity” value in series [3] (Sprague-Dawley rat, 10, 100, or 500 mg/kg/day oral gavage for 7 days) is given as “No findings”. In the series “in vivo” (10 mg/kg/day), the AUC (in general, the area under the concentration-time curve, a measure of exposure) was determined as 20.7 µM·h and the time of peak concentration (Tmax) (as a rule, the time at which the peak concentration occurs) is 3.4 h. In addition, the AUC in the series “in vivo” (100 mg/kg/day) turned out to be 94.6 µM·h. Also, in “in vivo” (500 mg/kg/day), the AUC is 219 µM·h and the Tmax was found to be 4.8 h.

Source of the values: patent US11311522B1 (Cavion, Inc., priority 2018, dated 2022).
